Assay [1] deals with T1, serotoninergic 5-HT1A receptor (Homo sapiens, UniProt P08908).
T1 sequence (P08908 1-422): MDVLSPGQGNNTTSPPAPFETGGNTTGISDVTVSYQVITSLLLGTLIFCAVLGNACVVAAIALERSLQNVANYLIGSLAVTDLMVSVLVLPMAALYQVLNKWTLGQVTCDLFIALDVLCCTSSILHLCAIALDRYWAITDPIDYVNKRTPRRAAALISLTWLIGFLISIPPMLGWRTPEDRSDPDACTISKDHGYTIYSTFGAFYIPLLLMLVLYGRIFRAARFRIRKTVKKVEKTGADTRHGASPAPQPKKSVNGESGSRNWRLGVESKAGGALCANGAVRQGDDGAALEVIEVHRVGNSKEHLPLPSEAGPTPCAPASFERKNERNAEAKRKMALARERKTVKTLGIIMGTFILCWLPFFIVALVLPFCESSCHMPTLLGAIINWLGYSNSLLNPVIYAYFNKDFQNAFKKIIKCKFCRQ
The assay is described as follows: Cellular functional assay, serotoninergic 5-HT1A receptor (agonism/antagonism). The assay is classed as cell-based. Conditions: for inhibition at 1 µM: CHO, read-out: 5-HT1A-antag. [%]; for activation at 1 µM: agonist effect, percent of control specific agonist response (100 nM 8-OH-DPAT for control), 1×10^−6 M, 5-HT1A (h), CHO cells, read-out: 5-HT1A-ag [%]. As to the method: (§1) The compounds were tested at the concentration of 1×10^−6M.
(§2) In the Tables ag refers to agonism, and antag to antagonism).

In assay [2] the target is T2, serotoninergic 5-HT7 receptor (Homo sapiens, UniProt P34969). The assay is described as follows: Binding assay 5-HT7 (h), [3H]LSD, CHO cells. Further details: expressed in transfected cells; host or cells: CHO cells. Conditions: read-out: 5-HT7. The method in brief:
(§3)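 Binding read by scintillation counting. Non-specific component defined by excess unlabelled ligand and removed from total counts. Compounds at 1×10^−6 M.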

The target of assay [3] is T3, serotoninergic 5-HT6 receptor (Homo sapiens, UniProt P50406). The assay is described as follows: Binding assay 5-HT6 (h), [3H]LSD, CHO cells. Further details: expressed in transfected cells; host or cells: CHO cells. Conditions: read-out: 5-HT6. The procedure, abridged:
as §3

For assay [4], the target named is T4, dopaminergic D2 receptor (Homo sapiens, UniProt P14416). The assay is described as follows: Cellular functional assay, dopaminergic D2 receptor (agonism/antagonism). The assay is classed as cell-based. Conditions: for inhibition at 1 µM: read-out: D2-antag. [%]. How it is done: as §1, §2
Target sequence in this assay (P14416 whole entry): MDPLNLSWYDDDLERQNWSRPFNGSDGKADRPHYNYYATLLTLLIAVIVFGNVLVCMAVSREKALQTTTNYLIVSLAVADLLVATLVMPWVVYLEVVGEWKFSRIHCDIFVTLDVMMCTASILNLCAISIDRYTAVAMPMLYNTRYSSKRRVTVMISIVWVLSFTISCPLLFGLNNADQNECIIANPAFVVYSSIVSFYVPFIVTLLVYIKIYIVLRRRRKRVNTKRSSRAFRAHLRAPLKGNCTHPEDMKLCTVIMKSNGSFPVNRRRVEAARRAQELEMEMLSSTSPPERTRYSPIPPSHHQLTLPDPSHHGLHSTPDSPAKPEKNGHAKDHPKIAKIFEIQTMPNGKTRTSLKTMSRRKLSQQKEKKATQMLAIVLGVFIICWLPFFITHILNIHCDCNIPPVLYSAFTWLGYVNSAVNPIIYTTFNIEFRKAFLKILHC
Another assay has as its target dopaminergic D3 receptor (Homo sapiens, UniProt P35462). The assay can be described thus: Binding assay D3 (h), [3H]methyl-spiperone, CHO cells. Further details: expressed in transfected cells; host or cells: CHO cells. As to conditions: read-out: D3 [%]. The procedure, abridged: as §3
The target in assay [5] is T4, dopaminergic D2 receptor. The assay can be described thus: Binding assay D2S (h), [3H]methyl-spiperone, HEK-293 cells. Set-up: expressed in transfected cells; host or cells: HEK-293 cells. As to conditions: read-out: D2 [%]. The method in brief: as §3
Target sequence in this assay (P14416 1-414 isoform P14416-2): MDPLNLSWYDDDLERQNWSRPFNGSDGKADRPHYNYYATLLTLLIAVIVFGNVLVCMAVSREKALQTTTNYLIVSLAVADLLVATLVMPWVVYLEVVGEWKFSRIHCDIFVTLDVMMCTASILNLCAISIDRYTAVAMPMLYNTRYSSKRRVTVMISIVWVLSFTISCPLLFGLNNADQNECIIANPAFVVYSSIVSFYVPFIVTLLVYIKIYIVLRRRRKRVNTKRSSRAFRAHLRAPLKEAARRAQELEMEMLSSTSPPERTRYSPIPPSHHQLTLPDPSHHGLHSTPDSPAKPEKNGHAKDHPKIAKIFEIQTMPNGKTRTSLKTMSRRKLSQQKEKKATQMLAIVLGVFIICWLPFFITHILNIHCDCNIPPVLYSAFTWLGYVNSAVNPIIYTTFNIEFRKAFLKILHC
Assay [6] has as its target T5, serotonine transporter (SERT) receptor (Homo sapiens, UniProt P31645).
T5 construct: expressed in transfected cells; host or cells: CHO cells
The assay is described as follows: Binding assay SERT (h), [3H]imipramine, CHO cells. Conditions: read-out: SERT [%]. The procedure, abridged: as §3

In the next assay the test system is adrenergic α1 receptor. The assay is described as follows: Binding assay α1 (non-selective), [3H]prazosin, rat cerebral cortex. As to conditions: percent inhibition of control specific binding; compounds tested at 1×10^−6 M. The procedure, abridged:
as §3

The test system of a further assay is sigma σ receptor. The assay is described as follows: Binding assay σ (non-selective), [3H]DTG, rat cerebral cortex. As to conditions: percent inhibition of control specific binding; compounds tested at 1×10^−6 M. The method in brief: as §3
Assay [7] addresses T6, serotoninergic receptor 5-HT2C (Homo sapiens, UniProt P28335).
T6 construct: expressed in transfected cells; host or cells: HEK-293 cells
T6 sequence (P28335 33-458): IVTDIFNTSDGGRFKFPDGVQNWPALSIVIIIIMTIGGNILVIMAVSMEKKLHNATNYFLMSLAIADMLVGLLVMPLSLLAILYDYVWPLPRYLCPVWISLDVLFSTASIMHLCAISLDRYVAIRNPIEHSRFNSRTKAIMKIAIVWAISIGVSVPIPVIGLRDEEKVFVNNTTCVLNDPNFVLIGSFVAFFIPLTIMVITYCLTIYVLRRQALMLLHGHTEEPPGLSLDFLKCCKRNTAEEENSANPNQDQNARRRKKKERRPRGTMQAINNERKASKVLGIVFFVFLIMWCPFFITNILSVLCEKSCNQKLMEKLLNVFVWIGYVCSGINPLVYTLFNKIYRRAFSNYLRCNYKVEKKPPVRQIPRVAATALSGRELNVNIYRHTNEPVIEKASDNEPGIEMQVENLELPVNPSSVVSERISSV
The assay can be described thus: Binding assay 5-HT2C (h), [3H]mesulergine, HEK-293 cells. Conditions: read-out: 5-HT2C [%]. The method in brief: as §3

For assay [8], the target named is T1, serotoninergic 5-HT1A receptor. The assay is described as follows: Binding assay 5-HT1A (h), [3H]8-OH-DPAT, HEK-293 cells. Set-up: expressed in transfected cells; host or cells: HEK-293 cells. Conditions: read-out: 5-HT1A. The method in brief:
as §3

Assay [9] has as its target T2, serotoninergic 5-HT7 receptor. The assay can be described thus: Cellular functional assay, serotoninergic 5-HT7 receptor (agonism/antagonism). The assay is classed as cell-based. As to conditions: for activation at 1 µM: agonist effect, percent of control specific agonist response, compounds tested at 1×10^−6M, read-out: 5-HT7-ag [%]; for inhibition at 1 µM: read-out: 5-HT7-antag. [%]. How it is done: as §1, §2

The next assay deals with T7, adrenergic α2C receptor (Homo sapiens, UniProt P18825).
T7 sequence (P18825 1-462): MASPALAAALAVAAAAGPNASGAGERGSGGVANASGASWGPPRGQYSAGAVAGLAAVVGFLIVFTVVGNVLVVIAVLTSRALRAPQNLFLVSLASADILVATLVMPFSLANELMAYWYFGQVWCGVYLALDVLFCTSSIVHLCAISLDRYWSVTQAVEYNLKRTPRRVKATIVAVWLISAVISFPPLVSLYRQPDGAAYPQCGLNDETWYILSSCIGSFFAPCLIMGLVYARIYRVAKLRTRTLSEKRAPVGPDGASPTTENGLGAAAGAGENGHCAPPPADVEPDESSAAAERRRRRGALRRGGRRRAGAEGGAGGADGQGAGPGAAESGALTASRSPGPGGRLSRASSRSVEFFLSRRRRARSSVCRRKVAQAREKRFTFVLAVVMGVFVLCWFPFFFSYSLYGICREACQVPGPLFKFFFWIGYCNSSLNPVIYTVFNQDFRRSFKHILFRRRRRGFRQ
The assay is described as follows: Binding assay α2C (h), [3H]RX 821002, CHO cells. Further details: expressed in transfected cells; host or cells: CHO cells. As to conditions: read-out: α2C [%]. The procedure, abridged: as §3

The next assay deals with T8, muscarinic M3 receptor (Homo sapiens, UniProt P20309).
T8 construct: expressed in transfected cells; host or cells: CHO cells
T8 sequence (P20309 whole entry): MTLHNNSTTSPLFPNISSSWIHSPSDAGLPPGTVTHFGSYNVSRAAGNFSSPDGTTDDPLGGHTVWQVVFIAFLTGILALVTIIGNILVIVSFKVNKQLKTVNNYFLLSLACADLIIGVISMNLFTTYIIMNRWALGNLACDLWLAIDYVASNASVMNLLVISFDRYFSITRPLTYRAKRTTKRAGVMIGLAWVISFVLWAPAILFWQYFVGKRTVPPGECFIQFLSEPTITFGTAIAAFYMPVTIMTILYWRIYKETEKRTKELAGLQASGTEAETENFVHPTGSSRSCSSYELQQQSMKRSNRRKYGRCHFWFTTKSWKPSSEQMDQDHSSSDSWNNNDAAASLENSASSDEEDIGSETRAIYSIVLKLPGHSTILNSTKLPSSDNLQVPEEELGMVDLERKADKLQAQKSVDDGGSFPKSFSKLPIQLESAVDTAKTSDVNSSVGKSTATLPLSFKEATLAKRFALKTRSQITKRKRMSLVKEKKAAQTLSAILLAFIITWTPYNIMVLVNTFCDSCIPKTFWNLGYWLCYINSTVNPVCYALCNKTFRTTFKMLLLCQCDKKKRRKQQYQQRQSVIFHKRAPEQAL
The assay can be described thus: Binding assay M3 (h), [3H]4-DAMP, CHO cells. As to conditions: read-out: M3 [%]. The procedure, abridged: as §3

Assay [10] has as its target T9, serotoninergic 5-HT2A receptor (Homo sapiens, UniProt P28223). The assay can be described thus: Binding assay 5-HT2A (h), [3H]ketanserin, HEK-293 cells. Set-up: expressed in transfected cells; host or cells: HEK-293 cells. As to conditions: read-out: 5-HT2A. The method in brief:
as §3

In assay [11] the target is histaminergic H1 receptor (Homo sapiens, UniProt P35367). The assay is described as follows: Binding assay H1 (h), [3H]pyrilamine, HEK-293 cells. As to conditions: read-out: H1 [%]. Set-up: expressed in transfected cells; host or cells: HEK-293 cells. The procedure, abridged:
as §3

In assay [12] the target is T9, serotoninergic 5-HT2A receptor. The assay is described as follows: Cellular functional assay, serotoninergic 5-HT2A receptor (agonism/antagonism). The assay is classed as cell-based. How it is done: […]. The compounds were tested at the concentration of 1×10^−6M.
Conditions and methodology (by reference to the literature) of cellular functional assays are given in Table 13 and the tests results for representative compounds are given in Table 14 (dopaminergic receptor D2), in Table 15 (dopaminergic receptor D3), in Table 16 (serotoninergic receptor 5-HT1A), in Table 17 (serotoninergic receptor 5-HT2A), in Table 18 (serotoninergic receptor 5-HT6), in Table 19 (serotoninergic receptor 5-HT7), in Table 20 (adrenergic α1 receptor), in Table 21 (adrenergic α2C receptor), in Table 22 (histaminergic H1 receptor) and in Table 23 (serotoninergic 5-HT2C receptor). In the Tables ag refers to agonism, and antag to antagonism).

In assay [13] the target is T3, serotoninergic 5-HT6 receptor. The assay is described as follows: Cellular functional assay, serotoninergic 5-HT6 receptor (agonism/antagonism). The assay is classed as cell-based. As to conditions: for activation at 1 µM: agonist effect, percent of control specific agonist response, compounds tested at 1×10^−6M, read-out: 5-HT6-ag [%]; for inhibition at 1 µM: read-out: 5-HT6-antag. [%]. As to the method:
as §1, §2

Setting [14] is: HEK293, agonist effect, percent of control specific agonist response (3 μM dopamine for control), 1×10^−6 M, D2S (h), HEK-293 cells, read-out: D2-ag [%].

Molecules are shown by their SMILES. Read-outs that look alike come from different tables or passages of the source.

The results in this text go back to patent US8822517B2, “Arylosulfonamides for the treatment of CNS diseases” (Adamed SP. Z O.O., priority 2010, dated 2014).

T5 sequence (P31645 whole entry): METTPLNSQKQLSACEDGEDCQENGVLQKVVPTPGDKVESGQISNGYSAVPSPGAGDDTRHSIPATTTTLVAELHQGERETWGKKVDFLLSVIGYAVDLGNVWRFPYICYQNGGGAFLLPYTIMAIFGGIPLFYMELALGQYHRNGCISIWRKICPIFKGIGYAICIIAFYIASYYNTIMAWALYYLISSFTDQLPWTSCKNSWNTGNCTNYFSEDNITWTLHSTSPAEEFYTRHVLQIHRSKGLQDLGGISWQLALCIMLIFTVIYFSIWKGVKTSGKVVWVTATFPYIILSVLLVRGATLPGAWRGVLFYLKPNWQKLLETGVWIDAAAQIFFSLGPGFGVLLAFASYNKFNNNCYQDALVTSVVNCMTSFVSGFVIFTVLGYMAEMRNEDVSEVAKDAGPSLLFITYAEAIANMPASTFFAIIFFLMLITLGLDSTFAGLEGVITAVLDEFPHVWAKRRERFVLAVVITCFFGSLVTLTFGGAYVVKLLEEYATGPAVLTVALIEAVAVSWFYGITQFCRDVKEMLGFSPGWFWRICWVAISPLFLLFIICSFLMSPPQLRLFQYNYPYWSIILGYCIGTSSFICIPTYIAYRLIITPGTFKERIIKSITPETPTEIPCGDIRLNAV
histaminergic H1 receptor, sequence (P35367 whole entry): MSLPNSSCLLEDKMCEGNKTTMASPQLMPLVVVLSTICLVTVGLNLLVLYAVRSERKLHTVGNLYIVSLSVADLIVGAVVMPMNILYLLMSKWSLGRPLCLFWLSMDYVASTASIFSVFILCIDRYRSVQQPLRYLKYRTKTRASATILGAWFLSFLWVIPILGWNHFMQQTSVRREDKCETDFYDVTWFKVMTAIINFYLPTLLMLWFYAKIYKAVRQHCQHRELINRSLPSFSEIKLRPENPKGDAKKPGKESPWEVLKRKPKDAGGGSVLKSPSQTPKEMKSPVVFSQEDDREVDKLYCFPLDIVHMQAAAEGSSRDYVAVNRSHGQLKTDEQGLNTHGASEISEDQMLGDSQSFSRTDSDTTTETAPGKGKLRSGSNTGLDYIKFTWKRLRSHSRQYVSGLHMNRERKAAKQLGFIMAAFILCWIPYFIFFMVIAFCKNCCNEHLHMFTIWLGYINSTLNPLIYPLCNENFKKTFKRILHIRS
T9 sequence (P28223 whole entry): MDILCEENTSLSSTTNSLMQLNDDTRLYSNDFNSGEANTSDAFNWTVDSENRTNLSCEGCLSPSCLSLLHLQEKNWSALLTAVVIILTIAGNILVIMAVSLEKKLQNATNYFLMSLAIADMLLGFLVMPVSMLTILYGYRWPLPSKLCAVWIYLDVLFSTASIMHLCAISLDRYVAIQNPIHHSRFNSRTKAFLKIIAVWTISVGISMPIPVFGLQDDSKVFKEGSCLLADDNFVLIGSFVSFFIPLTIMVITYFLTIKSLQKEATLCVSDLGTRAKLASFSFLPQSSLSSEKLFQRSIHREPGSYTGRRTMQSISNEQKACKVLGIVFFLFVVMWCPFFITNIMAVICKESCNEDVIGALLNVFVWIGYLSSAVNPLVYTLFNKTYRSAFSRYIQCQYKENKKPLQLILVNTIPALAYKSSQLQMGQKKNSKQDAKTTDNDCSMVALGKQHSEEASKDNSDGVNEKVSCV
T3 sequence (P50406 whole entry): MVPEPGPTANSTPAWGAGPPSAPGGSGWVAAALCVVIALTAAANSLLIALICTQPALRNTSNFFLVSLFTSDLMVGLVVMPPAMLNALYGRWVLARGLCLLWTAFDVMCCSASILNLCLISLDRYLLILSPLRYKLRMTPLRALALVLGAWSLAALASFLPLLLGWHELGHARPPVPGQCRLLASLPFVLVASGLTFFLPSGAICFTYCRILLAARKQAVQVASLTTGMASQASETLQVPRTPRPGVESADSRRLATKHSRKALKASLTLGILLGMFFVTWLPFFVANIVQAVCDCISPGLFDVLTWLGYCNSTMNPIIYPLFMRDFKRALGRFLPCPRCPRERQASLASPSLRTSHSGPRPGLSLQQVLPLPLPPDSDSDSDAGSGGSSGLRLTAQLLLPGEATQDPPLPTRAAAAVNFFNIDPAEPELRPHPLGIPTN
T2 sequence (P34969 whole entry): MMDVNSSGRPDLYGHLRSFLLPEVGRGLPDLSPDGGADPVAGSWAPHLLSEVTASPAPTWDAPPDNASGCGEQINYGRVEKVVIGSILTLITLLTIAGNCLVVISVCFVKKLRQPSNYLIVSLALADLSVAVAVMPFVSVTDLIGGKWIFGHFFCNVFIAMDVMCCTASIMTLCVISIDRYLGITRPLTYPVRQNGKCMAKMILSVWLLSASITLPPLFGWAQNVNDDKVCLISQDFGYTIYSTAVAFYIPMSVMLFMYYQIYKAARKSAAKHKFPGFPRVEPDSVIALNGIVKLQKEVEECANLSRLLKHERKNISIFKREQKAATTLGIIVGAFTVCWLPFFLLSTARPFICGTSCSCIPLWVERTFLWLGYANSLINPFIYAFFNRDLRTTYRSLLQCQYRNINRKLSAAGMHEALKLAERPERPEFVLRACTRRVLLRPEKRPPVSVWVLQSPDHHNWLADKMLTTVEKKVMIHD
dopaminergic D3 receptor, sequence (P35462 whole entry): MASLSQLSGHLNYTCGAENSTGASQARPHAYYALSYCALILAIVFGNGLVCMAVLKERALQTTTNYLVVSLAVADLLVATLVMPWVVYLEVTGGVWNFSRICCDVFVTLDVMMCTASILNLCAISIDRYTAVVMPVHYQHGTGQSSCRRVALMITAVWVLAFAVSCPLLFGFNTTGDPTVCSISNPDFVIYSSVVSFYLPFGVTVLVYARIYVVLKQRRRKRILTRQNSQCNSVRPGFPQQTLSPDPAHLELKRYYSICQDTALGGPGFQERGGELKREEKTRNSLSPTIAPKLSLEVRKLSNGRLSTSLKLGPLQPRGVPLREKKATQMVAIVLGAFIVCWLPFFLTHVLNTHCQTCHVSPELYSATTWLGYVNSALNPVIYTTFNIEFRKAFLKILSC

With `Cc1[nH]c2ccc(Cl)cc2c1C1=CCN(CCNS(=O)(=O)c2cccc(Cl)c2)CC1` [Compound 452, 3-Chloro-N-[2-[4-(5-chloro-2-methyl-1H-indol-3-yl)-3,6-dihydro-2H-pyridin-1-yl]ethyl]-benzenesulphonamide], the inhibition at 1 µM in [1] came out at 7%; in [2], 41%; in assay [3], 108%; at dopaminergic D2 receptor [4] (HEK293), 53%; at dopaminergic D3 receptor, 14%; at dopaminergic D2 receptor [5], 42%. For the same compound, the inhibition at 1 µM in assay [6] came to 18%. Moreover, the activation at 1 µM in assay [1] amounted to 30%; at dopaminergic D2 receptor [4] (HEK293, read-out: D2-ag [%]), 24%. Further, the “α1 [%]” value in the assay with adrenergic α1 receptor is 14%.
As for `Cc1cccc(S(=O)(=O)NCCCCN2CCN(c3noc4ccccc34)CC2)c1` [Compound 15, N-(4-(4-(1,2-Benzoxazol-3-yl)piperazin-1-yl)butyl)-3-methylbenzenesulphonamide], the “σ [%]” value in the assay with sigma σ receptor is reported as 47%. For the same compound, the inhibition at 1 µM is 23% in assay [7]; 86% in assay [8]; 96% in assay [9]; 100% in assay [2]; 71% in assay [3]; 88% at dopaminergic D2 receptor [4] (HEK293). The inhibition at 1 µM was 88% on dopaminergic D3 receptor; 98% on adrenergic α2C receptor; -9% on muscarinic M3 receptor; 90% at dopaminergic D2 receptor [5]; 99% in [10]; 84% in [11]. The results for the inhibition at 1 µM in assay [6], in assay [12] (read-out: 5-HT2A -antag [%]) and in [13] were -3%, 100% and 21%, respectively. In addition, the activation at 1 µM was 0% in assay [9], 2% on dopaminergic D2 receptor [4] (setting [14]), -1% in [12] (read-out: 5-HT2A -ag [%]) and 2% in assay [13]. The “α1 [%]” value in the assay on adrenergic α1 receptor amounted to 102%.
For `O=S(=O)(NCCCCN1CCN(c2cccc3[nH]ccc23)CC1)c1csc2ccccc12` [Compound 32, N-{4-[4-(1H-Indol-4-yl)piperazin-1-yl]butyl}-1-benzothiophene-3-sulphonamide], the inhibition at 1 µM in [3] was 23%; on dopaminergic D2 receptor [4] (HEK293) it was 89%; on dopaminergic D2 receptor [5] it was 101%. Moreover, on dopaminergic D2 receptor [4] (setting [14]), the activation at 1 µM was determined as 35%.
On to `O=S(=O)(NCCCCN1CCN(c2cccc3[nH]ccc23)CC1)c1ccc(F)c(F)c1` [Compound 29, 3,4-Difluoro-N-{4-[4-(1H-indol-4-yl)piperazin-1-yl]butyl}benzenesulphonamide], for which the “σ [%]” value in the assay on sigma σ receptor stood at 93%. The inhibition at 1 µM is 11% in [7]; 99% in assay [8]; 9% in [9]; 26% in assay [1]; 91% in assay [2]; 37% in [3]. The inhibition at 1 µM came out at 99% on dopaminergic D2 receptor [4] (HEK293); 98% at dopaminergic D3 receptor; 98% on adrenergic α2C receptor; 25% at muscarinic M3 receptor; 94% at dopaminergic D2 receptor [5]; 64% in assay [10]. Further, the inhibition at 1 µM in assay [11] is 74%; in assay [6], 12%. In addition, the activation at 1 µM amounted to 5% in assay [9], 71% in assay [1] and 45% on dopaminergic D2 receptor [4] (setting [14]). In addition, the “α1 [%]” value in the assay with adrenergic α1 receptor is given as 99%.
On to `O=S(=O)(NCCN1CCN(c2nsc3ccccc23)CC1)c1ccc2ccccc2c1` [Compound 10, N-(2-(4-(1,2-Benzothiazol-3-yl)piperazin-1-yl)ethyl)naphthalene-2-sulphonamide], for which, in the assay on sigma σ receptor, the “σ [%]” value is given as 31%. In addition, the inhibition at 1 µM in assay [7] is 54%; in assay [8] it was 97%; in assay [9], 85%; in assay [2], 99%; in assay [3], 37%; on dopaminergic D3 receptor, 97%. The inhibition at 1 µM was 98% at adrenergic α2C receptor; -2% on muscarinic M3 receptor; 94% on dopaminergic D2 receptor [5]; 99% in assay [10]; 81% in assay [11]; 50% in assay [6]. For the same compound, in assay [13], the inhibition at 1 µM was -16%. Besides, the activation at 1 µM in assay [9] came to 0%; in [13] it was 1%. In addition, the “α1 [%]” value with adrenergic α1 receptor is listed as 79%.
